Source: ChEMBL document CHEMBL5316297, “Mechanistic Insight of Synthesized 1,4-Dihydropyridines as an Antidiabetic Sword against Reactive Oxygen Species” (J Med Chem, 2023)

What was measured:
[1] = test system: Mus musculus; assay: Antidiabetic activity against high fat diet-STZ-induced diabetic Swiss albino mouse model assessed as reduction in blood glucose level at 0.2 mmol/Kg/day, po administered for 14 days relative to control; assay type: functional; set-up: scale not given: the % may be the effect or the level left; conditions: time 14 day
[2] = Acute toxicity in Swiss albino mouse assessed as effect on behavioural change up to 2000 mg/kg, po administered for 14 days; assay type: organism-based; conditions: in vivo, 336 h, time 14 day
[3] = Acute toxicity in Swiss albino mouse assessed as effect on motor alterations up to 2000 mg/kg, po administered for 14 days; assay type: organism-based; conditions: in vivo, 336 h, time 14 day
[4] = Acute toxicity in Swiss albino mouse assessed as effect on mortality up to 2000 mg/kg, po administered for 14 days; assay type: organism-based; conditions: in vivo, 336 h, time 14 day
[5] = Toxicity in high fat diet-STZ-induced diabetic Swiss albino mouse model assessed as changes in body weight at 0.2 mmol/Kg/day, po administered for 14 days (reference value: 26.6 to 27.8 g); assay type: organism-based; conditions: in vivo, 336 h, time 14 day
[6] = Acute toxicity in Swiss albino mouse assessed as toxic symptoms up to 2000 mg/kg, po administered for 14 days; assay type: organism-based; conditions: in vivo, 336 h, time 14 day
[7] = test system: Mus musculus; assay: Antidiabetic activity against high fat diet-STZ-induced diabetic Swiss albino mouse model assessed as reduction in blood glucose level at 0.2 mmol/Kg/day, po administered for 14 days relative to glimepiride; assay type: functional; set-up: scale not given: the % may be the effect or the level left; conditions: time 14 day
[8] = test system: Mus musculus; assay: Antidiabetic activity against high fat diet-STZ-induced diabetic Swiss albino mouse model assessed as reduction in blood glucose level at 0.2 mmol/Kg/day, po administered for 14 days; assay type: functional; conditions: time 14 day

Compound	Activity [1] [%]	Activity [2]	Activity [3]	Activity [4]	Activity [5] [g]	Activity [6]	Activity [7] [%]	Activity [8] [mg/dL]
CCOC(=O)C1=C(C)NC(C)=C(C(=O)OCc2ccccc2)C1c1ccc2c(c1)OCO2 (stereo not given)	43.21	Non-Toxic	Non-Toxic	Non-Toxic	27.3	Non-Toxic	129	169.35
CCOC(=O)C1=C(C)NC(C)=C(C(=O)OC(C)(C)C)C1c1ccc2c(c1)OCO2 (stereo not given)	0.1	Non-Toxic	Non-Toxic	Non-Toxic	27.9	Non-Toxic	<1	297.9
CCOC(=O)C1=C(C)NC(C)=C(C(=O)OC(C)C)C1c1ccc2c(c1)OCO2 (stereo not given)	0.11	Non-Toxic	Non-Toxic	Non-Toxic	29.2	Non-Toxic	<1	297.87
CCOC(=O)C1=C(C)NC(C)=C(C(=O)OC(C)C)C1c1cccc2c1OCO2 (stereo not given)	0.27	Non-Toxic	Non-Toxic	Non-Toxic	28.9	Non-Toxic	<1	297.39
COC(=O)C1=C(C)NC(C)=C(C(=O)OC(C)C)C1c1cccc2c1OCO2 (stereo not given)	20.11	Non-Toxic	Non-Toxic	Non-Toxic	28.9	Non-Toxic	60	238.23
COC(=O)C1=C(C)NC(C)=C(C(=O)OCc2ccccc2)C1c1ccc2c(c1)OCO2 (stereo not given)	42.88	Non-Toxic	Non-Toxic	Non-Toxic	27.4	Non-Toxic	128	170.33
CCOC(=O)C1=C(C)NC(C)=C(C(=O)OC)C1c1ccc2c(c1)OCO2 (stereo not given)	53.6	Non-Toxic	Non-Toxic	Non-Toxic	27.4	Non-Toxic	160	138.36
COC(=O)C1=C(C)NC(C)=C(C(=O)OC(C)(C)C)C1c1cccc2c1OCO2 (stereo not given)	0.29	Non-Toxic	Non-Toxic	Non-Toxic	28.7	Non-Toxic	<1	297.34
CCOC(=O)C1=C(C)NC(C)=C(C(=O)OCCOC)C1c1cccc2c1OCO2 (stereo not given)	44.89	Non-Toxic	Non-Toxic	Non-Toxic	27.2	Non-Toxic	134	164.33
CC1=C(C(=O)OCc2ccccc2)C(c2cccc3c2OCO3)C(C(=O)OCc2ccccc2)=C(C)N1	43.66	Non-Toxic	Non-Toxic	Non-Toxic	27.3	Non-Toxic	129	169.4
CCOC(=O)C1=C(C)NC(C)=C(C(=O)OCCOC)C1c1ccc2c(c1)OCO2 (stereo not given)	43.89	Non-Toxic	Non-Toxic	Non-Toxic	27.2	Non-Toxic	131	167.32
CC1=C(C(=O)OC(C)(C)C)C(c2cccc3c2OCO3)C(C(=O)OC(C)(C)C)=C(C)N1	0.69	Non-Toxic	Non-Toxic	Non-Toxic	29.3	Non-Toxic	<1	296.14
COC(=O)C1=C(C)NC(C)=C(C(=O)OC)C1c1ccc2c(c1)OCCO2	48.62	Non-Toxic	Non-Toxic	Non-Toxic	27.3	Non-Toxic	145	153.21
CCOC(=O)C1=C(C)NC(C)=C(C(=O)OCC)C1c1ccc2c(c1)Cc1ccccc1-2	0.42	Non-Toxic	Non-Toxic	Non-Toxic	29.3	Non-Toxic	1	296.94
COC(=O)C1=C(C)NC(C)=C(C(=O)OC)C1c1cccc2c1OCO2	61.63	Non-Toxic	Non-Toxic	Non-Toxic	26.6	Non-Toxic	184	114.42
CC1=C(C(=O)OC(C)(C)C)C(c2ccc3c(c2)OCO3)C(C(=O)OC(C)(C)C)=C(C)N1	0.61	–	–	–	26.9	–	<1	296.38
COC(=O)C1=C(C)NC(C)=C(C(=O)OCc2ccccc2)C1c1cccc2c1OCO2 (stereo not given)	43.55	Non-Toxic	Non-Toxic	Non-Toxic	27.4	Non-Toxic	130	168.33
COCCOC(=O)C1=C(C)NC(C)=C(C(=O)OC)C1c1ccc2c(c1)OCO2 (stereo not given)	12.73	Non-Toxic	Non-Toxic	Non-Toxic	28.6	Non-Toxic	38	260.24
COCCOC(=O)C1=C(C)NC(C)=C(C(=O)OCCOC)C1c1cccc2c1OCO2	30.11	Non-Toxic	Non-Toxic	Non-Toxic	27	Non-Toxic	90	208.41
CCOC(=O)C1=C(C)NC(C)=C(C(=O)OC)C1c1ccc2c(c1)OCCO2 (stereo not given)	50.49	Non-Toxic	Non-Toxic	Non-Toxic	27.5	Non-Toxic	151	147.34
COC(=O)C1=C(C)NC(C)=C(C(=O)OC)C1c1ccc2c(c1)Cc1ccccc1-2	0.41	Non-Toxic	Non-Toxic	Non-Toxic	29.2	Non-Toxic	1	296.98
CC1=C(C(=O)OC(C)C)C(c2ccc3c(c2)OCCO3)C(C(=O)OC(C)C)=C(C)N1	0.34	Non-Toxic	Non-Toxic	Non-Toxic	28.8	Non-Toxic	1	297.19
CCOC(=O)C1=C(C)NC(C)=C(C(=O)OCC)C1c1ccc2c(c1)OCCO2	49.58	Non-Toxic	Non-Toxic	Non-Toxic	26.8	Non-Toxic	148	150.35
CC1=C(C(=O)OCc2ccccc2)C(c2ccc3c(c2)OCO3)C(C(=O)OCc2ccccc2)=C(C)N1	37.86	–	–	–	27	–	113	185.3
COCCOC(=O)C1=C(C)NC(C)=C(C(=O)OC)C1c1cccc2c1OCO2 (stereo not given)	13.4	Non-Toxic	Non-Toxic	Non-Toxic	28.3	Non-Toxic	40	258.24
CCOC(=O)C1=C(C)NC(C)=C(C(=O)OC)C1c1cccc2c1OCO2 (stereo not given) [OXODIPINE]	63.65	Non-Toxic	Non-Toxic	Non-Toxic	27.2	Non-Toxic	190	108.4
CCOC(=O)C1=C(C)NC(C)=C(C(=O)OCc2ccccc2)C1c1cccc2c1OCO2 (stereo not given)	44.22	Non-Toxic	Non-Toxic	Non-Toxic	27.2	Non-Toxic	132	166.34
CC1=C(C(=O)OC(C)C)C(c2cccc3c2OCO3)C(C(=O)OC(C)C)=C(C)N1	10.05	Non-Toxic	Non-Toxic	Non-Toxic	28.9	Non-Toxic	30	268.23
COCCOC(=O)C1=C(C)NC(C)=C(C(=O)OCCOC)C1c1ccc2c(c1)OCO2	30.11	–	–	–	27.4	–	90	208.41
